One assay addresses JAK2 kinase domain (JH1) (Homo sapiens (Human), UniProt O60674). The experiment in a line: JAK2 Radioactive Kinase Assay. Format: biochemical. The following applies: for inhibition at 10 µM: read-out: JAK2 JH1% Inhibition @ 10 μM. In a few lines:
(§1)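 Read-out is percent inhibition from a radioactive kinase reaction, measured with compound at 10 μM.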

For another assay, the target named is Tyk2 kinase domain (DH1) (Homo sapiens (Human), UniProt P29597). In words: Tyk2 Radioactive Kinase Assay. Format: biochemical. The following applies: for inhibition at 10 µM: read-out: Tyk2 JH1% Inhibition @ 10 μM. The gist of the method:
as §1

Assay [1] has as its target human TYK2 (JH2domain-pseudokinase) (Homo sapiens (Human), UniProt P29597). The experiment in a line: TYK2 JH2 Domain Binding Assay (KINOMEscan). The gist of the method:
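Competition binding of a DNA-tagged fusion of human TYK2 JH2 pseudokinase (G556–D888) with NFkB DNA-binding domain, from HEK293 extracts (<0.1 nM final), against immobilised ligand beads; 1 h shaking at room temperature, 0.9% DMSO. Bound kinase quantified by qPCR.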

Where two headings read alike, the source gives them in different places.

By inhibition is commonly meant the change of the read-out against control, counted positive when it falls. One may read the Kd as the equilibrium constant for the complex coming apart. A low value points to higher affinity.

human TYK2 (JH2domain-pseudokinase), sequence (P29597 556-888): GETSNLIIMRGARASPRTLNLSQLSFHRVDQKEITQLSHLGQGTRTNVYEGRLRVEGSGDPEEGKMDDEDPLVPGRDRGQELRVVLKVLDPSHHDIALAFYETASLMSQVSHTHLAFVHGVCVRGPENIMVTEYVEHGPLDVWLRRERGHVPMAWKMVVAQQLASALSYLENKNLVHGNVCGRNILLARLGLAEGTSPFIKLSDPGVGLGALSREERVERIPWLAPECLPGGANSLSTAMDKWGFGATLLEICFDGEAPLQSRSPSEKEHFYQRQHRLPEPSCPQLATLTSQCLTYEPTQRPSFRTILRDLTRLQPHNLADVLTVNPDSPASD
Tyk2 kinase domain (DH1), sequence (P29597 897-1176): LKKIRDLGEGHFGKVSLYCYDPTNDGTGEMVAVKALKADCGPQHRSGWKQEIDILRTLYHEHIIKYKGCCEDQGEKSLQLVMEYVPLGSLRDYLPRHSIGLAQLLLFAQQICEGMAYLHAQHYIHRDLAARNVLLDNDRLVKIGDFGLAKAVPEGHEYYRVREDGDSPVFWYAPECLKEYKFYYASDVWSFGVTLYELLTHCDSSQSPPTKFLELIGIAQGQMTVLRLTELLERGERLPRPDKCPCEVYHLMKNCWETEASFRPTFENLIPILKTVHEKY
JAK2 kinase domain (JH1), sequence (O60674 849-1124): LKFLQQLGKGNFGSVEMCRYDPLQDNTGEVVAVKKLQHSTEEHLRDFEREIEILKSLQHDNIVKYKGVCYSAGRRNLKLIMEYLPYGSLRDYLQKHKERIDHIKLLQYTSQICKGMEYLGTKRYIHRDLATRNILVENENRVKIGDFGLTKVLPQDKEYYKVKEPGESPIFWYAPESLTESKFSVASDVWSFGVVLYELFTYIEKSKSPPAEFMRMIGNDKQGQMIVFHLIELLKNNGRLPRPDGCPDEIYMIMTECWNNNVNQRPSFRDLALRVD

`CNc1cc(-c2cn(CCN3CCCCC3)c3ncccc23)nc2c(C(=O)N[C@H]3CC[C@@H]3O)cnn12` [I-838]: the inhibition at 10 µM on JAK2 kinase domain (JH1) (10 μM compound, 10 μM ATP) was less than 50%; on Tyk2 kinase domain (DH1) (10 μM compound, 10 μM ATP), less than 50%. The compound also displayed a Kd in assay [1] of less than 0.2 nM.
`CNc1cc(Nc2cccc([C@H]3CCCOC3)n2)nc2c(C(=O)N[C@@H]3COC[C@@H]3O)cnn12` [I-634]: the inhibition at 10 µM on JAK2 kinase domain (JH1) (compound at 10 μM, ATP 10 μM) was less than 50%; at Tyk2 kinase domain (DH1) (compound at 10 μM, ATP 10 μM), less than 50%. Moreover, the equilibrium dissociation constant (Kd) in assay [1] was less than 0.2 nM.
With `CNc1cc(Nc2cccn(-c3cc(C)on3)c2=O)nc2c(C(N)=O)cnn12` [I-46], the inhibition at 10 µM on JAK2 kinase domain (JH1) (compound at 10 μM, ATP 10 μM) is less than 50%; on Tyk2 kinase domain (DH1) (compound at 10 μM, ATP 10 μM), less than 50%. In addition, the Kd in assay [1] was less than 0.2 nM.
Regarding `CNc1cc(Nc2cccn(C(C)C)c2=O)nc2c(C(=O)N[C@@H]3CC[C@@H]3O)cnn12` [I-978], the inhibition at 10 µM at JAK2 kinase domain (JH1) (10 μM compound, 10 μM ATP) was less than 50%; on Tyk2 kinase domain (DH1) (10 μM compound, 10 μM ATP), less than 50%. In addition, the Kd in assay [1] lay in the range of 0.2 to 1 nM.
Turning to `CNc1cc(Nc2cccn([C@@H]3CCN(C)C[C@@H]3F)c2=O)nc2c(C(=O)NC3CC3)cnn12` [I-688], the inhibition at 10 µM at JAK2 kinase domain (JH1) (compound at 10 μM, ATP 10 μM) was less than 50%; at Tyk2 kinase domain (DH1) (compound at 10 μM, ATP 10 μM) it was less than 50%. In addition, the Kd in assay [1] was less than 0.2 nM.
`CNc1cc(Nc2cccn([C@H]3C[C@@H]3F)c2=O)nc2c(C(=O)N[C@H]3CC[C@H]3O)cnn12` (mixture of isomers) [I-1090, 5-((1-((1S,2S)-2-fluorocyclopropyl)-2-oxo-1,2-dihydropyridin-3-yl)amino)-N-(2-hydroxycyclobutyl)-7-(methylamino)pyrazolo[1,5-a]pyrimidine-3-carboxamide]: the inhibition at 10 µM at JAK2 kinase domain (JH1) (10 μM compound, 10 μM ATP) is less than 50%; at Tyk2 kinase domain (DH1) (10 μM compound, 10 μM ATP), less than 50%. In assay [1], this compound came in with a Kd of less than 0.2 nM.
Take `CNc1cc(Nc2cccn([C@H]3CCCN(CCC#N)C3)c2=O)nc2c(C(=O)N[C@@H]3C[C@@H]3F)cnn12` [I-1040]: the inhibition at 10 µM at JAK2 kinase domain (JH1) (10 μM compound, 10 μM ATP) is less than 50%; on Tyk2 kinase domain (DH1) (10 μM compound, 10 μM ATP) it was less than 50%. In assay [1], this compound yielded a Kd of 0.2 to 1 nM.
Take `CNc1cc(Nc2cccc3ocnc23)nc2c(C(=O)N[C@H]3CC[C@@H]3O)cnn12` [I-858, 5-(benzo[d]oxazol-4-ylamino)-N-((1S,2S)-2-hydroxycyclobutyl)-7-(methylamino)pyrazolo[1,5-a]pyrimidine-3-carboxamide]: the inhibition at 10 µM was less than 50% on JAK2 kinase domain (JH1) (10 μM compound, 10 μM ATP) and less than 50% at Tyk2 kinase domain (DH1) (10 μM compound, 10 μM ATP). Also, in assay [1], the Kd is less than 0.2 nM.
Turning to `CNc1cc(Nc2cccn(CCOC3CC3)c2=O)nc2c(C(=O)NC3CC[C@H]3O)cnn12` (stereo in doubt) [I-515, 5-((1-(2-cyclopropoxyethyl)-2-oxo-1,2-dihydropyridin-3-yl)amino)-N-((1R,2R)-2-hydroxycyclobutyl)-7-(methylamino)pyrazolo[1,5-a]pyrimidine-3-carboxamide], the inhibition at 10 µM was less than 50% on JAK2 kinase domain (JH1) (compound at 10 μM, ATP 10 μM) and less than 50% on Tyk2 kinase domain (DH1) (compound at 10 μM, ATP 10 μM). In assay [1], the Kd lay within 0.2 to 1 nM.
Turning to `CNc1cc(Nc2ccc3c(n2)CCO3)nc2c(C(=O)NC3CC3)cnn12` [I-631], the inhibition at 10 µM at JAK2 kinase domain (JH1) (compound at 10 μM, ATP 10 μM) was less than 50%; at Tyk2 kinase domain (DH1) (compound at 10 μM, ATP 10 μM) it was less than 50%. This compound came in with a Kd in assay [1] of 0.2 to 1 nM.
Take `CNc1cc(Nc2cccn(CCOC3CC3)c2=O)nc2c(C(=O)N[C@@H]3CC[C@@H]3O)cnn12` [I-473]: the inhibition at 10 µM on JAK2 kinase domain (JH1) (compound at 10 μM, ATP 10 μM) is less than 50%; at Tyk2 kinase domain (DH1) (compound at 10 μM, ATP 10 μM) it was less than 50%. The same compound displayed a Kd in assay [1] of 0.2 to 1 nM.
In the case of `CNc1cc(Nc2cccn(-c3ncc(C)s3)c2=O)nc2c(C(=O)N[C@H]3CC[C@H]3O)cnn12` [I-1072], the inhibition at 10 µM was less than 50% at JAK2 kinase domain (JH1) (10 μM compound, 10 μM ATP) and less than 50% on Tyk2 kinase domain (DH1) (10 μM compound, 10 μM ATP). In assay [1], this compound had a Kd of less than 0.2 nM.
Turning to `CNc1cc(Nc2cccn(CCOC3CC3)c2=O)nc2c(C(=O)N[C@@H]3CC[C@@H]3O)cnn12` [I-516], at JAK2 kinase domain (JH1) (compound at 10 μM, ATP 10 μM), the “JAK2 JH1% Inhibition @ 10 μM” value is “A (percent inhibition at 10 μM lower than 50)”. In addition, the “Tyk2 JH1% Inhibition @ 10 μM” value at Tyk2 kinase domain (DH1) (compound at 10 μM, ATP 10 μM) is reported as “A (percent inhibition at 10 μM lower than 50)”. Besides, the Kd in assay [1] was 1 to 10 nM.
With `CNc1cc(Nc2cccn3cnnc23)nc2c(C(=O)N[C@@H]3CC[C@@H]3O)cnn12` [I-662], the inhibition at 10 µM is less than 50% at JAK2 kinase domain (JH1) (compound at 10 μM, ATP 10 μM) and less than 50% on Tyk2 kinase domain (DH1) (compound at 10 μM, ATP 10 μM). The compound also registered a Kd in assay [1] of less than 0.2 nM.

Values taken from patent US10508120B2, “TYK2 inhibitors and uses thereof” (Nimbus Lakshmi, Inc., priority 2017, dated 2019).
